Data published in ChEMBL document CHEMBL4414608, “Secophragmalin-Type Limonoids from Trichilia connaroides: Isolation, Semisynthesis, and Their Cytotoxic Activities” (J Nat Prod, 2019).
The source made the active and inactive calls. The rule behind the calls is not given here.

Experiments:
[1] = tested on: A549; experiment: Cytotoxicity against human A549 cells assessed as cell growth inhibition measured after 24 hrs by MTT assay; type: functional, cell-based; conditions: A549, 24 h
[2] = tested on: HeLa; experiment: Cytotoxicity against human HeLa cells assessed as cell growth inhibition measured after 24 hrs by MTT assay; type: functional, cell-based
[3] = tested on: DU-145; experiment: Cytotoxicity against human DU145 cells assessed as cell growth inhibition measured after 24 hrs by MTT assay; type: functional, cell-based; conditions: DU-145, 24 h
[4] = tested on: COLO 205; experiment: Cytotoxicity against human COLO205 cells assessed as cell growth inhibition measured after 24 hrs by MTT assay; type: functional, cell-based; conditions: COLO 205, 24 h
[5] = tested on: SK-OV-3; experiment: Cytotoxicity against human SKOV3 cells assessed as cell growth inhibition measured after 24 hrs by MTT assay; type: functional, cell-based; conditions: SK-OV-3, 24 h
[6] = tested on: DU-145; experiment: Cell cycle arrest in human DU145 cells assessed as accumulation at G2/M phase at 4.8 uM measured after 24 hrs by RNase A/propidium iodide staining based flow cytometry analysis; type: functional
[7] = tested on: DU-145; experiment: Induction of apoptosis in human DU145 cells assessed as live cells at 4.8 uM measured after 24 hrs by Annexin-V/FITC and propidium iodide staining based flow cytometry (reference value: 95.62 %); type: functional
[8] = tested on: DU-145; experiment: Induction of apoptosis in human DU145 cells assessed as early apoptotic cells at 4.8 uM measured after 24 hrs by Annexin-V/FITC and propidium iodide staining based flow cytometry (reference value: 0.25 %); type: functional
[9] = tested on: DU-145; experiment: Induction of apoptosis in human DU145 cells assessed as late apoptotic cells at 4.8 uM measured after 24 hrs by Annexin-V/FITC and propidium iodide staining based flow cytometry (reference value: 1.49 %); type: functional
[10] = tested on: DU-145; experiment: Induction of apoptosis in human DU145 cells assessed as necrotic cells at 4.8 uM measured after 24 hrs by Annexin-V/FITC and propidium iodide staining based flow cytometry (reference value: 2.64 %); type: functional
[11] = tested on: DU-145; experiment: Cell cycle arrest in human DU145 cells assessed as accumulation at G0/G1 phase at 5.2 uM measured after 24 hrs by RNase A/propidium iodide staining based flow cytometry analysis (reference value: 51.75 %); type: functional
[12] = tested on: DU-145; experiment: Induction of apoptosis in human DU145 cells assessed as live cells at 5.2 uM measured after 24 hrs by Annexin-V/FITC and propidium iodide staining based flow cytometry (reference value: 95.62 %); type: functional
[13] = tested on: DU-145; experiment: Induction of apoptosis in human DU145 cells assessed as early apoptotic cells at 5.2 uM measured after 24 hrs by Annexin-V/FITC and propidium iodide staining based flow cytometry (reference value: 0.25 %); type: functional
[14] = tested on: DU-145; experiment: Induction of apoptosis in human DU145 cells assessed as late apoptotic cells at 5.2 uM measured after 24 hrs by Annexin-V/FITC and propidium iodide staining based flow cytometry (reference value: 1.49 %); type: functional
[15] = tested on: DU-145; experiment: Induction of apoptosis in human DU145 cells assessed as necrotic cells at 5.2 uM measured after 24 hrs by Annexin-V/FITC and propidium iodide staining based flow cytometry (reference value: 2.64 %); type: functional
[16] = tested on: DU-145; experiment: Induction of apoptosis in human DU145 cells assessed as live cells at 8 uM measured after 24 hrs by Annexin-V/FITC and propidium iodide staining based flow cytometry (reference value: 95.62 %); type: functional
[17] = tested on: DU-145; experiment: Induction of apoptosis in human DU145 cells assessed as early apoptotic cells at 8 uM measured after 24 hrs by Annexin-V/FITC and propidium iodide staining based flow cytometry (reference value: 0.25 %); type: functional
[18] = tested on: DU-145; experiment: Induction of apoptosis in human DU145 cells assessed as late apoptotic cells at 8 uM measured after 24 hrs by Annexin-V/FITC and propidium iodide staining based flow cytometry (reference value: 1.49 %); type: functional
[19] = tested on: DU-145; experiment: Induction of apoptosis in human DU145 cells assessed as necrotic cells at 8 uM measured after 24 hrs by Annexin-V/FITC and propidium iodide staining based flow cytometry (reference value: 2.64 %); type: functional
[20] = tested on: DU-145; experiment: Cell cycle arrest in human DU145 cells assessed as accumulation at G0/G1 phase at 4.2 uM measured after 24 hrs by RNase A/propidium iodide staining based flow cytometry analysis (reference value: 51.75 %); type: functional
[21] = tested on: DU-145; experiment: Induction of apoptosis in human DU145 cells assessed as live cells at 4.2 uM measured after 24 hrs by Annexin-V/FITC and propidium iodide staining based flow cytometry (reference value: 95.62 %); type: functional
[22] = tested on: DU-145; experiment: Induction of apoptosis in human DU145 cells assessed as early apoptotic cells at 4.2 uM measured after 24 hrs by Annexin-V/FITC and propidium iodide staining based flow cytometry (reference value: 0.25 %); type: functional
[23] = tested on: DU-145; experiment: Induction of apoptosis in human DU145 cells assessed as late apoptotic cells at 4.2 uM measured after 24 hrs by Annexin-V/FITC and propidium iodide staining based flow cytometry (reference value: 1.49 %); type: functional
[24] = tested on: DU-145; experiment: Induction of apoptosis in human DU145 cells assessed as necrotic cells at 4.2 uM measured after 24 hrs by Annexin-V/FITC and propidium iodide staining based flow cytometry (reference value: 2.64 %); type: functional
[25] = tested on: DU-145; experiment: Induction of apoptosis in human DU145 cells assessed as live cells at 7 uM measured after 24 hrs by Annexin-V/FITC and propidium iodide staining based flow cytometry (reference value: 95.62 %); type: functional
[26] = tested on: DU-145; experiment: Induction of apoptosis in human DU145 cells assessed as early apoptotic cells at 7 uM measured after 24 hrs by Annexin-V/FITC and propidium iodide staining based flow cytometry (reference value: 0.25 %); type: functional
[27] = tested on: DU-145; experiment: Induction of apoptosis in human DU145 cells assessed as late apoptotic cells at 7 uM measured after 24 hrs by Annexin-V/FITC and propidium iodide staining based flow cytometry (reference value: 1.49 %); type: functional
[28] = tested on: DU-145; experiment: Induction of apoptosis in human DU145 cells assessed as necrotic cells at 7 uM measured after 24 hrs by Annexin-V/FITC and propidium iodide staining based flow cytometry (reference value: 2.64 %); type: functional
[29] = tested on: DU-145; experiment: Induction of apoptosis in human DU145 cells assessed as increase in total apoptotic cells measured after 24 hrs by Annexin-V/FITC and propidium iodide staining based flow cytometry; type: functional, cell-based
[30] = tested on: DU-145; experiment: Cell cycle arrest in human DU145 cells assessed as accumulation at G0/G1 phase at 3.6 uM measured after 24 hrs by RNase A/propidium iodide staining based flow cytometry analysis (reference value: 51.75 %); type: functional
[31] = tested on: DU-145; experiment: Induction of apoptosis in human DU145 cells assessed as live cells at 3.6 uM measured after 24 hrs by Annexin-V/FITC and propidium iodide staining based flow cytometry (reference value: 95.62 %); type: functional
[32] = tested on: DU-145; experiment: Induction of apoptosis in human DU145 cells assessed as early apoptotic cells at 3.6 uM measured after 24 hrs by Annexin-V/FITC and propidium iodide staining based flow cytometry (reference value: 0.25 %); type: functional
[33] = tested on: DU-145; experiment: Induction of apoptosis in human DU145 cells assessed as late apoptotic cells at 3.6 uM measured after 24 hrs by Annexin-V/FITC and propidium iodide staining based flow cytometry (reference value: 1.49 %); type: functional
[34] = tested on: DU-145; experiment: Induction of apoptosis in human DU145 cells assessed as necrotic cells at 3.6 uM measured after 24 hrs by Annexin-V/FITC and propidium iodide staining based flow cytometry (reference value: 2.64 %); type: functional
[35] = tested on: DU-145; experiment: Induction of apoptosis in human DU145 cells assessed as live cells at 6 uM measured after 24 hrs by Annexin-V/FITC and propidium iodide staining based flow cytometry (reference value: 95.62 %); type: functional
[36] = tested on: DU-145; experiment: Induction of apoptosis in human DU145 cells assessed as early apoptotic cells at 6 uM measured after 24 hrs by Annexin-V/FITC and propidium iodide staining based flow cytometry (reference value: 0.25 %); type: functional
[37] = tested on: DU-145; experiment: Induction of apoptosis in human DU145 cells assessed as late apoptotic cells at 6 uM measured after 24 hrs by Annexin-V/FITC and propidium iodide staining based flow cytometry (reference value: 1.49 %); type: functional
[38] = tested on: DU-145; experiment: Induction of apoptosis in human DU145 cells assessed as necrotic cells at 6 uM measured after 24 hrs by Annexin-V/FITC and propidium iodide staining based flow cytometry (reference value: 2.64 %); type: functional

COc1cccc2c1C(=O)c1c(O)c3c(c(O)c1C2=O)C[C@@](O)(C(=O)CO)C[C@@H]3O[C@H]1C[C@H](N)[C@H](O)[C@H](C)O1 [DOXORUBICIN]
IC50 [1]: 5.3 µM
IC50 [2]: 7.9 µM
IC50 [3]: 4.8 µM
IC50 [4]: 3.8 µM
IC50 [5]: 3 µM
Activity [6]: Active
Activity [7]: 84.42%
Activity [8]: 2.41%
Activity [9]: 10.77%
Activity [10]: 2.4%

C/C=C(\C)C(=O)O[C@@H]1[C@]2(OC(=O)CCCC)C=C3C4=CC(=O)O[C@@H](c5ccoc5)[C@]4(C)CC[C@@H]3[C@@]3(C)[C@H](C[C@]1(C)[C@H]3[C@@H](O)C(=O)OC)O2
IC50 [1]: 9.4 µM
IC50 [2]: > 100 µM
IC50 [3]: 5.2 µM
IC50 [4]: 4 µM
IC50 [5]: 13.7 µM
Activity [11]: 42.93%
Activity [12]: 83.45%
Activity [13]: 1.74%
Activity [14]: 10.35%
Activity [15]: 4.46%
Activity [16]: 85.39%
Activity [17]: 1.39%
Activity [18]: 8.11%
Activity [19]: 5.11%

C/C=C(\C)C(=O)O[C@@H]1[C@]2(OC(=O)CCCC)C=C3C4=CC(=O)O[C@@H](c5ccoc5)[C@]4(C)CC[C@@H]3[C@@]3(C)[C@H](C[C@]1(C)[C@H]3[C@@H](OC(=O)CCCC)C(=O)OC)O2
IC50 [1]: 5.5 µM
IC50 [2]: > 100 µM
IC50 [3]: 4.2 µM
IC50 [4]: > 100 µM
IC50 [5]: > 100 µM
Activity [20]: 53.27%
Activity [21]: 93.3%
Activity [22]: 0.86%
Activity [23]: 3.39%
Activity [24]: 2.45%
Activity [25]: 89.44%
Activity [26]: 0.92%
Activity [27]: 5.73%
Activity [28]: 3.91%
Activity [29]: Dose-dependent effect

CCOC(=O)[C@H](O)[C@@H]1[C@@]2(C)C[C@@H]3O[C@@](O)(C=C4C5=CC(=O)O[C@@H](c6ccoc6)[C@]5(C)CC[C@@H]4[C@@]31C)[C@H]2O
IC50 [1]: 16.3 µM
IC50 [2]: > 100 µM
IC50 [3]: 3.6 µM
IC50 [4]: > 100 µM
IC50 [5]: > 100 µM
Activity [30]: 47.2%
Activity [31]: 90.97%
Activity [32]: 0.84%
Activity [33]: 5.39%
Activity [34]: 2.8%
Activity [35]: 89.27%
Activity [36]: 0.86%
Activity [37]: 6.45%
Activity [38]: 3.42%
Activity [29]: Dose-dependent effect
